Measured values from ChEMBL document CHEMBL3886260, “Amide or urea containing benzothiazole inhibitors of endothelial lipase” (2015).

Molecular target: T1, Endothelial lipase (Homo sapiens, UniProt Q9Y5X9)
T1 sequence (Q9Y5X9 whole entry): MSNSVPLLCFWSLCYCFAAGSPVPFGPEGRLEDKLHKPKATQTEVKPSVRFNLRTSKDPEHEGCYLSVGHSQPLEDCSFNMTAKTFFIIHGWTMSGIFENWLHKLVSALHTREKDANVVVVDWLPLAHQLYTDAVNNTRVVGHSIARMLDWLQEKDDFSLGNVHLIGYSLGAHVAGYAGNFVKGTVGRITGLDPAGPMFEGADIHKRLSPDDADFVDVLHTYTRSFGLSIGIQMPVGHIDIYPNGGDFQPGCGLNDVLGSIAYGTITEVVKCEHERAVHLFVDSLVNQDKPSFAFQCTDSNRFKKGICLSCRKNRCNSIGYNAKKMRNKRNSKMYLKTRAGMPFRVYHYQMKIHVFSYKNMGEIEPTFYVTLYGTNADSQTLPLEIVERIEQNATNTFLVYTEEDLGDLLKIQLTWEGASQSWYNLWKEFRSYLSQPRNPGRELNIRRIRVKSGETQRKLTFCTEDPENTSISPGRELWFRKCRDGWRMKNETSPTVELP
Experiment: Biological Assay: Endothelial lipase activity was measured using a fluorescent substrate, A10070, (Invitrogen, CA) doped into an artificial vesicle containing DMPG (Avanti Polar Lipids) as the excipient. Vesicles were prepared by combining 285 uL, of 1 mM DMPG in a 1:1 mixture of MeOH and CHCl3 with 15 uL, of 1 mM A10070 in a 1:1 mixture of MeOH and CHCl3. The mixture was dried under nitrogen and resuspended in 150 uL, of 50 mM HEPES pH 8.0 buffer containing 100 mM NaCl and 0.2 mM EDTA. The sample was allowed to sit at rt for 15 min and then was sonicated 3x4 mins on ice with a Branson Sonicator using duty cycle 1. This preparation provides vesicles with a mole fraction of 0.05 for the FRET substrate.The enzymatic assay was measured using white, opaque 96-well half area plates. Each well contained 60 uL, of assay buffer (50 mM HEPES pH 8.0, 50 mM NaCl and 1 mM CaCl2) and 2 ul of a DMSO solution containing compound of interest. Conditioned media obtained from HT-1080 cells.
Type: cell-based

IC50, < 10 nM:
CC(C)(C)OC(=O)NC(c1nnc(CNS(N)(=O)=O)o1)c1nc2ccc(-c3ccccc3)cc2s1 (stereo not drawn)
CC(=O)NC(c1nnc(C2CN(C(=O)OC(C)(C)C)C2)o1)c1nc2ccc(-c3ccccc3)cc2s1 (stereo not drawn)
O=C(NC(c1nnc(CS(=O)(=O)O)o1)c1nc2ccc(-c3ccccc3)cc2s1)c1ccc(C(F)(F)F)cc1 (stereo not drawn)
